Test [1] concerns CCI-induced cold hypersensitivity in Sprague Dawley rats. Description: Chronic constriction injury (CCI)-induced neuropathic pain, acetone-induced cold hypersensitivity. The test is classed as in vivo. To be noted: po; rat CCI; 10 mg/kg p.o.; 3 h post-dose; read-out: % Inhibition (acetone-evoked paw withdrawals). The text has this: Male Sprague Dawley rats (225-450 g; n=5-8/treatment) were used to evaluate the ability of selected compounds of the Formula (I) to reverse CCI-induced cold hypersensitivity. Four loose ligatures of 4-0 chromic gut were surgically placed around the left sciatic nerve under inhalation anesthesia as described by Bennett et al. (Bennett, G. J.; Xie, Y. K. Pain 1988, 33(1), 87-107). Fourteen to 35 days following CCI surgery, subjects were placed in elevated observation chambers containing wire mesh floors and five applications of acetone (0.05 mL/application separated by approximately 5 minutes) were spritzed onto the plantar surface of the paw using a multidose syringe. An abrupt withdrawal or lifting of the paw was considered a positive response. The number of positive responses was recorded for each rat over the five trials. Following baseline withdrawal determinations, compounds of Formula (I) are administered in an appropriate vehicle, such as hydroxypropyl-β-cyclodextrin ([…]), methylcellulose, Methocel, 10% Solutol, or H2O, or the like, by the appropriate route, i.p. or p.o. The number of withdrawals were redetermined 1 to 3 h after compound administration. Results are presented as a percent inhibition of shakes, which was calculated for each subject as [1−(test compound withdrawals/pre-test withdrawals)]×100 and then averaged by treatment.

The test system of test [2] is icilin-induced "wet-dog" shakes in Sprague Dawley rats. Description: Reversal of icilin-induced "wet-dog" shakes in rats. The test is classed as in vivo. To be noted: po; rat; 10 mg/kg p.o.; 1 h post-icilin.
The target of another test is T1, canine TRPM8 (Canis lupus familiaris, UniProt Q1A7N1).
T1 construct: expressed in transfected cells
T1 sequence (Q1A7N1 1-1104): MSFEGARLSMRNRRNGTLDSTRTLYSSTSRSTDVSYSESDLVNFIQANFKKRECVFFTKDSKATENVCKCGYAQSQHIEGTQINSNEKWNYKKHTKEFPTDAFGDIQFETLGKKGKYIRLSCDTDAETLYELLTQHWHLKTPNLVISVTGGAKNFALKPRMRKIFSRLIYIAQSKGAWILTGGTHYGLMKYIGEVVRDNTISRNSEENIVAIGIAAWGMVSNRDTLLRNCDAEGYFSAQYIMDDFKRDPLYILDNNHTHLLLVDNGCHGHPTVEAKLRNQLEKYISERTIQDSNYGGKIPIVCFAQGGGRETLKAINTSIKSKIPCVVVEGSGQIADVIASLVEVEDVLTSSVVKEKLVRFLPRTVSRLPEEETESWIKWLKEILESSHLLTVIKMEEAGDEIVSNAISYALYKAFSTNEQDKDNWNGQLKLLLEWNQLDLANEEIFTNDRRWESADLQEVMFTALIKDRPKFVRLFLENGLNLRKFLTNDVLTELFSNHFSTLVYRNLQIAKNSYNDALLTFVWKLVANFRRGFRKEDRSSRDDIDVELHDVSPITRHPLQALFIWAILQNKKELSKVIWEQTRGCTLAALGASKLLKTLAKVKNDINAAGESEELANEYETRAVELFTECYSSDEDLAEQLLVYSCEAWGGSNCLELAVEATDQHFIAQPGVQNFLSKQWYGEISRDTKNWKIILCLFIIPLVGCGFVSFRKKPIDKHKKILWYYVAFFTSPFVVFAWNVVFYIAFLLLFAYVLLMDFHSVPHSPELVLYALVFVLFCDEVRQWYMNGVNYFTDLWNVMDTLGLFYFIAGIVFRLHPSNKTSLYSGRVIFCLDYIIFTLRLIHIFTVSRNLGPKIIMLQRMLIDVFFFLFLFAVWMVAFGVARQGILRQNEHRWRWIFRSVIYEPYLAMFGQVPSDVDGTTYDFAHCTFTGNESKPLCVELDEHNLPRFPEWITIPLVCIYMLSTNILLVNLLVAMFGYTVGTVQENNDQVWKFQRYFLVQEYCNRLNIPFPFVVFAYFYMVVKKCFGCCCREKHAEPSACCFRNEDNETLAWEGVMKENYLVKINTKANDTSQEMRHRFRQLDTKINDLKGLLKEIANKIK
Description: In vitro canine TRPM8 functional assay (icilin-induced intracellular Ca2+, FLIPR/FDSS).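 On all read-outs here: intracellular Ca2+ tracked with a Ca2+-sensitive fluorescent dye, compound applied 5 min before icilin was added.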 The test is classed as cell-based. To be noted: HEK293 cells stably expressing canine TRPM8; for inhibition at 0.2 µM: 0.200 μM compound, icilin challenge (~80% maximal response), read-out: % Inh. @ 0.200 μM; for IC50: icilin challenge, eight-point dose-response.

Structures can show the parent of a compound that is named as a salt.

From patent US8232409B2, “Heterocyclic benzimidazoles as TRPM8 modulators” (Janssen Pharmaceutica N.V., priority 2008, dated 2012) come the findings set out here.

As for `FC(F)(F)c1ccccc1-c1ccc2nc(C3=NOC4(CCCCC4)C3)[nH]c2c1` [Cpd 1, 3-[5-(2-Trifluoromethyl-phenyl)-1H-benzimidazol-2-yl]-1-oxa-2-aza-spiro[4.5]dec-2-ene], the inhibition in vivo at 10 mg/kg in test [1] came to 65%.
`FC(F)(F)Oc1ccccc1-c1ccc2[nH]c(C3=NOC4(CCCCC4)C3)nc2c1` [Cpd 7, 3-[5-(2-Trifluoromethoxy-phenyl)-1H-benzimidazol-2-yl]-1-oxa-2-aza-spiro[4.5]dec-2-ene hydrochloride]: the figures for the inhibition in vivo at 10 mg/kg in test [1] and in test [2] were 83% and above 96%, respectively.
As to `Fc1cccc(OC(F)(F)F)c1-c1ccc2[nH]c(C3=NOC4(CCCCC4)C3)nc2c1` [Cpd 8, 3-[5-(2-Fluoro-6-trifluoromethoxy-phenyl)-1H-benzimidazol-2-yl]-1-oxa-2-aza-spiro[4.5]dec-2-ene hydrochloride], the inhibition in vivo at 10 mg/kg in test [2] was above 96%.
Take `FC(F)(F)c1ccccc1-c1cc(Cl)c2[nH]c(C3=NOC4(CCCCC4)C3)nc2c1` [Cpd 16, 3-[7-Chloro-5-(2-trifluoromethylphenyl)-1H-benzimidazol-2-yl]-1-oxa-2-aza-spiro[4.5]dec-2-ene hydrochloride]: the inhibition in vivo at 10 mg/kg is 82.5% in test [1] and above 99% in test [2].
With `FC(F)(F)c1ccccc1-c1cc(C(F)(F)F)c2[nH]c(C3=NOC4(CCCCC4)C3)nc2c1` [Cpd 27, 3-[7-Trifluoromethyl-5-(2-trifluoromethyl-phenyl)-1H-benzimidazol-2-yl]-1-oxa-2-aza-spiro[4.5]dec-2-ene hydrochloride], the inhibition at 0.2 µM on canine TRPM8 worked out at 100%. Further, the figures for the inhibition in vivo at 10 mg/kg in test [1] and in test [2] were 83% and above 99%, respectively.
Turning to `CC1C(c2nc3cc(-c4ccccc4C(F)(F)F)cc(C(F)(F)F)c3[nH]2)=NOC12CCCCC2` (centres unmarked) [Cpd 28, 4-Methyl-3-[7-trifluormethyl-5-(2-trifluoromethyl-phenyl)-1H-benzimidazol-2-yl]-1-oxa-2-aza-spiro[4.5]dec-2-ene hydrochloride], on canine TRPM8, the inhibition at 0.2 µM turned out to be 101% and the half-maximal inhibitory concentration (IC50) turned out to be 1.1 nM. Besides, in test [2], the inhibition in vivo at 10 mg/kg came to 30%.
For `CC1(C)CCC2(CC1)CC(c1nc3cc(-c4ccccc4C(F)(F)F)cc(Cl)c3[nH]1)=NO2` [Cpd 41, 3-[7-Chloro-5-(2-trifluoromethyl-phenyl)-1H-benzimidazol-2-yl]-8,8-dimethyl-1-oxa-2-aza-spiro[4.5]dec-2-ene hydrochloride], on canine TRPM8, the inhibition at 0.2 µM was determined as 92% and the half-maximal inhibitory concentration (IC50) is 50.2 nM.
The corresponding values for `CC(C)(O)CCc1cc(-c2ccccc2C(F)(F)F)cc2nc(C3=NOC4(CCCCC4)C3)[nH]c12` [Cpd 43, 2-Methyl-4-[2-(1-oxa-2-aza-spiro[4.5]dec-2-en-3-yl)-6-(2-trifluoromethylphenyl)-3H-benzimidazol-4-yl]-butan-2-ol] are 99% and 1.7 nM.
`Fc1cccc(F)c1-c1cc(Cl)c2[nH]c(C3=NOC4(CCCCC4)C3)nc2c1` [Cpd 44, 3-[7-Chloro-5-(2,6-difluorophenyl)-1H-benzimidazol-2-yl]-1-oxa-2-aza-spiro[4.5]dec-2-ene methanesulfonate]: at canine TRPM8, the inhibition at 0.2 µM amounted to 100% and the IC50 is 2.1 nM.
Regarding `Clc1ccccc1-c1ccc2[nH]c(C3=NOC4(CCCCC4)C3)nc2c1` [Cpd 45, 3-[5-(2-Chlorophenyl)-1H-benzimidazol-2-yl]-1-oxa-2-aza-spiro[4.5]dec-2-ene hydrochloride], the inhibition at 0.2 µM on canine TRPM8 amounted to 97%.
For `Cc1cc(-c2ccccc2C(F)(F)F)cc2nc(C3=NOC4(CCCCC4)C3)[nH]c12` [Cpd 46, 3-[7-Methyl-5-(2-trifluoromethylphenyl)-1H-benzimidazol-2-yl]-1-oxa-2-aza-spiro[4.5]dec-2-ene hydrochloride], at canine TRPM8, the inhibition at 0.2 µM came out at 97% and the half-inhibitory concentration (IC50) amounted to 1.8 nM.
The corresponding values for `Cc1cc(-c2ccccc2F)cc2nc(C3=NOC4(CCCCC4)C3)[nH]c12` [Cpd 47, 3-[7-Methyl-5-(2-fluorophenyl)-1H-benzimidazol-2-yl]-1-oxa-2-aza-spiro[4.5]dec-2-ene hydrochloride] are 97% and 6.9 nM.
The corresponding values for `Cc1cc(-c2c(F)cccc2F)cc2nc(C3=NOC4(CCCCC4)C3)[nH]c12` [Cpd 48, 3-[7-Methyl-5-(2,6-difluorophenyl)-1H-benzimidazol-2-yl]-1-oxa-2-aza-spiro[4.5]dec-2-ene hydrochloride] are 97% and 3.9 nM.
On the same counts, the results for `Fc1ccccc1-c1cc(Cl)c2[nH]c(C3=NOC4(CCCCC4)C3)nc2c1` [Cpd 49, 3-[7-Chloro-5-(2-fluorophenyl)-1H-benzimidazol-2-yl]-1-oxa-2-aza-spiro[4.5]dec-2-ene methanesulfonate] are 101% and 6.1 nM.
Turning to `FC(F)(F)Oc1ccccc1-c1cc(Cl)c2[nH]c(C3=NOC4(CCCCC4)C3)nc2c1` [Cpd 50, 3-[7-Chloro-5-(2-trifluoromethoxyphenyl)-1H-benzimidazol-2-yl]-1-oxa-2-aza-spiro[4.5]dec-2-ene methanesulfonate], on canine TRPM8, the inhibition at 0.2 µM came to 101% and 1.9 nM corresponded to half-maximal inhibition (IC50).
On the same counts, the results for `COCCCc1cc(-c2ccccc2C(F)(F)F)cc2nc(C3=NOC4(CCCCC4)C3)[nH]c12` [Cpd 52, 3-[7-(3-Methoxy-propyl)-5-(2-trifluoromethylphenyl)-1H-benzimidazol-2-yl]-1-oxa-2-aza-spiro[4.5]dec-2-ene hydrochloride] are 97% and 1 nM.
As to `Cc1c(-c2ccccc2C(F)(F)F)cc(C)c2[nH]c(C3=NOC4(CCCCC4)C3)nc12` [Cpd 54, 3-[4,7-Dimethyl-5-(2-trifluoromethylphenyl)-1H-benzimidazol-2-yl]-1-oxa-2-aza-spiro[4.5]dec-2-ene hydrochloride], on canine TRPM8, the inhibition at 0.2 µM is 97% and the IC50 is 5.8 nM.
In the case of `Cc1c(-c2ccccc2C(F)(F)F)cc(Cl)c2[nH]c(C3=NOC4(CCCCC4)C3)nc12` [Cpd 55, 3-[7-Chloro-4-methyl-5-(2-trifluoromethylphenyl)-1H-benzimidazol-2-yl]-1-oxa-2-aza-spiro[4.5]dec-2-ene hydrochloride], at canine TRPM8, the inhibition at 0.2 µM is 97% and the IC50 amounted to 4.7 nM.
The corresponding values for `FC(F)(F)c1ccccc1-c1ccc2[nH]c(C3=NOC4(CCCCC4)C3)nc2n1` [Cpd 56, 2-(1-Oxa-2-aza-spiro[4.5]dec-2-en-3-yl)-5-(2-trifluoromethyl-phenyl)-1H-imidazo[4,5-b]pyridine hydrochloride] are 101% and 4.6 nM.
On the same counts, the results for `FC(F)(F)c1ccccc1-c1cc2nc(C3=NOC4(CCCCC4)C3)[nH]c2cn1` [Cpd 57, 2-(1-Oxa-2-aza-spiro[4.5]dec-2-en-3-yl)-6-(2-trifluoromethyl-phenyl)-3H-imidazo[4,5-c]pyridine hydrochloride] are 102% and 2.7 nM.
The corresponding values for `FC(F)(F)c1ccccc1-c1cnc2[nH]c(C3=NOC4(CCCCC4)C3)nc2c1` [Cpd 58, 2-(1-Oxa-2-aza-spiro[4.5]dec-2-en-3-yl)-6-(2-trifluoromethyl-phenyl)-3H-imidazo[4,5-b]pyridine hydrochloride] are 101% and 2 nM.

As usually defined, the IC50 is the concentration that gives 50% inhibition. A higher IC50 goes with a need for much substance.
